# Measurements reported in patent publication US20220370397A1, “METHODS AND COMPOSITIONS FOR TREATMENT OF CANCER” (Enzychem Lifesciences Corporation, priority 2019, published 2022).
# Assays:
# [1] = test system: MDA-MB-231 breast cancer Xenograft; test: MDA-MB-231 breast cancer Xenograft model, AC-regimen alone and PLAG co-treatment; assay type: in vivo, mouse
# Method: MDA-MB-231 breast cancer Xenograft model was used. Tumor growth was evaluated in the AC-regimen alone and PLAG co-treated animals. AC-regimen was delivered via IP injection twice a week with dose of 2/20 and 5/50 mph (Doxorubicin/Cyclophosphamide), and PLAG was daily administered with 100 and 250 mpk. Tumor growth was calculated with 3 day intervals. Neutrophil chemotaxis related chemokines, CXCL1/2/8 and circulating neutrophils were also evaluated with 2 week internal. Expression of apoptosis molecular markers, Bax/Bak and tumor-infiltrating neutrophil (TIN) in the tumor lesion was analyzed by immunohistochemistry (IHC).
# [2] = test system: tumor in Xenograft mice; test: PLAG alone in Xenograft mice (tumor mass, neutrophil infiltration, chemokines, cell cycle factors by IHC); assay type: in vivo, mouse
# Description: Compared to positive control: *P<0.05, ***P<0.001 (each experiment n=5).
# Compared to positive control: *P<0.05, **P<0.01 (each experiment n=5).
# N.S., not significant. Compared to positive control; #P<0.05, ##P<0.01, ###P<0.001 (each experiment n=5). N.S.′, not significant.
# Compared to positive control: *P<0.05, **P<0.01 (each experiment n=5). N.S., not significant.
# [3] = test system: neutrophil-activated MDA-MB-231 breast cancer cells; test: Cell growth and cell cycle activity in neutrophil-activated cancer cells; assay type: cell-based
# Description: Compared to negative control each week: *P<0.05, **P<0.01, ***P<0.001 (each experiment n=5). N.S., not significant. Compared to neutrophil stimulated only group each week: #P<0.05, ##P<0.01, ###P<0.001 (each experiment n=5). N.S.′, not significant.
# [4] = test system: PAR2; test: PAR2 degradation (western blot, immunoprecipitation, ubiquitination assay); assay type: cell-based; conditions: PLAG and neutrophil co-treated cancer cells / cancer tissues
# [5] = test system: MB49 murine bladder cancer cells; test: MB49 bladder cancer syngeneic model, PLAG with or without PD-L1 antibody; assay type: in vivo, C57BL/6 mice
# Description: The syngeneic model was used (n=6) to investigate the enhanced anti-tumor effect of PD-L1 antibody with the addition of PLAG. MB49 murine bladder cancer cells were implanted into the C57BL/6 mice subcutaneously and bred for 5 weeks. After a week from tumor implantation, PLAG at different dosages (50/100 mpk) were daily administered orally for another 4 weeks with or without 5 mpk PD-L1 antibody (10F.9G2). PD-L1 antibody was delivered via IP injection once a week. (FIG. 7, Table 1)
# [6] = test system: LLC-1 lung carcinoma; test: LLC-1 syngeneic model, PLAG with or without aPD-1; assay type: in vivo, C57BL/6 mice
# Description: To investigate the enhanced anti tumor effect of the anti-PD-1 antibody (aPD-1 with the addition of 1-palmitoyl-2-linoleoyk-3-acetyl-rac-glycerol (PLAG), the syngeneic model was used (n=6/group), LLC-1 lung carcinoma was implanted into C57BL/6 mice subcutaneously. PLAG was daily administrated for 4 weeks with or without aPD-1 (RMP 1-14. aPD-1 was delivered via IP injection once a week. The degree of infiltrated lymphocyte population and neutrophils in the tumor and blood on the sacrificed day were analyzed (FIG. 12, Table 2).
smiles,measurement,setting,value
"CCCCC/C=C\C/C=C\CCCCCCCC(=O)OC(COC(C)=O)COC(=O)CCCCCCCCCCCCCCC (stereo not drawn) [PLAG, 1-palmitoyl-2-linoleoyl-3-acetylglycerol]",tumor tissue on the sacrifice day,[1]; 250 mpk PLAG co-treated with 5/50 AC-regimen,no tumor tissues were found
same,tumor burden compared with AC-regimen alone group,"[1]; PLAG 100 and 250 mpk daily co-treated with 5/50 AC-regimen, p<0.05",significantly decreased in a concentration-dependent manner
same,tumor-infiltrating neutrophil (TIN),"[1]; PLAG added to AC-regimen, IHC",Significantly reduced
same,chemokine expression,"[1]; PLAG added to AC-regimen, chemokine analysis",Significantly reduced
same,chemokine expression,[1]; PLAG alone,reduced
same,tumor growth,[1]; PLAG alone,interruption of tumor growth
same,tumor-infiltrating neutrophil (TIN),[1]; PLAG alone,reduced
same,kind of combined effect on regression of tumor burden,[1]; PLAG co-treated with AC-regimen,synergistic effect
same,tumor burden compared with AC-regimen alone,"[1]; PLAG co-treated with AC-regimen, until sacrifice",smaller tumor burden than that in AC-regimen alone
same,expression of neutrophil chemotactic chemokine in cancer tissues,[2],effectively regulate
same,infiltration of neutrophils in cancer tissues,[2],control excessive infiltration of neutrophils
same,cell cycle of cancer tissues / excessive growth,[2]; without additional chemotherapeutic agents,regulate excessive growth by inhibiting the cell cycle
same,cell cycle activity,[3]; neutrophil activated cancer cells,inhibitory effect
same,cell growth,"[3]; neutrophil-activated MDA-MB-231 cells, dose-dependent",inhibition of cell growth
same,PAR2 degradation,[4],inducing PAR2 degradation
same,number of TINs,[5]; PLAG alone,effectively reduced
same,tumor burden compared to positive control,"[5]; PLAG alone 50 and 100 mpk, oral daily, p<0.05",decreased to a significant value
same,growth of the tumor compared to PD-L1 antibody alone,[5]; PLAG and PD-L1 antibody simultaneously,significantly reduced
same,neutrophil-to-lymphocyte ratio (NLR) level compared to PD-L1 antibody alone,"[5]; PLAG and PD-L1 antibody, blood, every two weeks",significantly decreased
same,chemokine secretion,[5]; PLAG treated groups,reduced
same,tumor burden compared to positive control,[6]; PLAG alone 50 and 100 mpk,significantly reduced
same,activity and infiltration of cytotoxic T-Lymphocyte (CTLs) in the tumor compared to aPD-1 alone,[6]; PLAG co-treated with aPD-1,effectively increased
same,neutrophil to lymphocyte ratio levels compared to aPD-1 alone,[6]; PLAG co-treated with aPD-1,decreased remarkably
same,population of Th 17 compared to the positive control,[6]; PLAG co-treated with aPD-1,significant reduction
same,tumor reduction compared to aPD-1 alone,[6]; PLAG co-treated with aPD-1,18
same,"DAMP (adenosine) originated from tumor, plasma",[6]; PLAG treatment,rapid removal
same,degree of neutrophil infiltration in the tumor,[6]; upon PLAG treatment,effectively reduced
